How the values were obtained:
Experiment in all cases: relative viability (nuclei count vs DMSO), 5 days (fraction); higher = more cells survive
ABC-1 = tested on: ABC-1
How it was run: (§1)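 Nuclei were stained with Hoechst during a one-step fixation (final 0.05% Triton X-100, 1% formaldehyde, 1 ug/ml Hoechst) carried out 5 days after dosing, then counted on 4× images. The cells, lung cancer lines in 1536-well plates, had been dosed by pin tool the day after seeding with one drug alone or a fixed anchor-drug dose plus five library-drug doses (not always all listed) in √10 steps. Relative viability is the nuclei count in treated wells divided by that in vehicle wells, and each value is the median of duplicate plates.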

EMC-BAC-2 = tested on: EMC-BAC-2
How it was run: as §1

NCI-H23 = tested on: NCI-H23
How it was run: as §1

Calu-6 = tested on: Calu-6
How it was run: as §1

NCI-H1299 = tested on: NCI-H1299
How it was run: as §1

HCC-78 = tested on: HCC-78
How it was run: as §1

NCI-H1703 = tested on: NCI-H1703
How it was run: as §1

A549 = tested on: A549
How it was run: as §1

NCI-H1437 = tested on: NCI-H1437
How it was run: as §1

NCI-H661 = tested on: NCI-H661
How it was run: as §1

NCI-H1395 = tested on: NCI-H1395
How it was run: as §1

EBC-1 = tested on: EBC-1
How it was run: as §1

IA-LM = tested on: IA-LM
How it was run: as §1

NCI-H1648 = tested on: NCI-H1648
How it was run: as §1

## COCC1(CO)C(=O)C2CCN1CC2 (stereo unspecified) [PRIMA-1MET] + C[C@]1(O)C[C@@H](c2nc(-c3ccc4ccc(-c5ccccc5)nc4c3)c3c(N)nccn32)C1 [Linsitinib] (partner 1 µM)
ABC-1; first compound 0.2 µM
  relative viability: 0.899
ABC-1; first compound 0.6325 µM
  relative viability: 0.958
ABC-1; first compound 2 µM
  relative viability: 0.89
ABC-1; first compound 6.325 µM
  relative viability: 0.833
ABC-1; first compound 20 µM
  relative viability: 0.519
EMC-BAC-2; first compound 0.2 µM
  relative viability: 0.843
EMC-BAC-2; first compound 0.6325 µM
  relative viability: 0.822
EMC-BAC-2; first compound 2 µM
  relative viability: 0.784
EMC-BAC-2; first compound 6.325 µM
  relative viability: 0.821
EMC-BAC-2; first compound 20 µM
  relative viability: 0.817
NCI-H23; first compound 0.2 µM
  relative viability: 0.692
NCI-H23; first compound 0.6325 µM
  relative viability: 0.443
NCI-H23; first compound 2 µM
  relative viability: 0.419
NCI-H23; first compound 6.325 µM
  relative viability: 0.416
NCI-H23; first compound 20 µM
  relative viability: 0.113
Calu-6; first compound 0.2 µM
  relative viability: 1.02
Calu-6; first compound 0.6325 µM
  relative viability: 0.885
Calu-6; first compound 2 µM
  relative viability: 0.732
Calu-6; first compound 6.325 µM
  relative viability: 0.957
Calu-6; first compound 20 µM
  relative viability: 0.687
NCI-H1299; first compound 0.2 µM
  relative viability: 1.15
NCI-H1299; first compound 0.6325 µM
  relative viability: 0.852
NCI-H1299; first compound 2 µM
  relative viability: 1.01
NCI-H1299; first compound 6.325 µM
  relative viability: 1.05
NCI-H1299; first compound 20 µM
  relative viability: 0.917
HCC-78; first compound 0.2 µM
  relative viability: 0.658
HCC-78; first compound 0.6325 µM
  relative viability: 0.556
HCC-78; first compound 6.325 µM
  relative viability: 0.498
HCC-78; first compound 20 µM
  relative viability: 0.0559
NCI-H1703; first compound 0.2 µM
  relative viability: 0.25
NCI-H1703; first compound 6.325 µM
  relative viability: 1.29
NCI-H1703; first compound 20 µM
  relative viability: 0.0482
A549; first compound 0.2 µM
  relative viability: 0.708
A549; first compound 0.6325 µM
  relative viability: 0.559
A549; first compound 2 µM
  relative viability: 0.281
A549; first compound 6.325 µM
  relative viability: 0.598
A549; first compound 20 µM
  relative viability: 0.403
NCI-H1437; first compound 0.2 µM
  relative viability: 1.08
NCI-H1437; first compound 0.6325 µM
  relative viability: 0.982
NCI-H1437; first compound 2 µM
  relative viability: 1.02
NCI-H1437; first compound 6.325 µM
  relative viability: 1.1
NCI-H1437; first compound 20 µM
  relative viability: 0.753
NCI-H661; first compound 0.2 µM
  relative viability: 0.561
NCI-H661; first compound 0.6325 µM
  relative viability: 0.507
NCI-H661; first compound 6.325 µM
  relative viability: 0.532
NCI-H661; first compound 20 µM
  relative viability: 0.283
NCI-H1395; first compound 0.2 µM
  relative viability: 1.1
NCI-H1395; first compound 0.6325 µM
  relative viability: 0.909
NCI-H1395; first compound 2 µM
  relative viability: 0.958
NCI-H1395; first compound 6.325 µM
  relative viability: 1.61
NCI-H1395; first compound 20 µM
  relative viability: 0.859
EBC-1; first compound 0.2 µM
  relative viability: 1.02
EBC-1; first compound 0.6325 µM
  relative viability: 0.972
EBC-1; first compound 2 µM
  relative viability: 0.758
EBC-1; first compound 6.325 µM
  relative viability: 0.9
EBC-1; first compound 20 µM
  relative viability: 0.623
IA-LM; first compound 0.2 µM
  relative viability: 0.483
IA-LM; first compound 0.6325 µM
  relative viability: 0.661
IA-LM; first compound 2 µM
  relative viability: 0.358
IA-LM; first compound 6.325 µM
  relative viability: 0.713
IA-LM; first compound 20 µM
  relative viability: 0.573

## COCC1(CO)C(=O)C2CCN1CC2 (stereo unspecified) [PRIMA-1MET] + Cc1nc(NC(=O)N2CCC[C@H]2C(N)=O)sc1-c1ccnc(C(C)(C)C(F)(F)F)c1 [Alpelisib] (partner 2 µM)
ABC-1; first compound 0.2 µM
  relative viability: 1.07
ABC-1; first compound 0.6325 µM
  relative viability: 1.1
ABC-1; first compound 2 µM
  relative viability: 1.11
ABC-1; first compound 6.325 µM
  relative viability: 1.04
ABC-1; first compound 20 µM
  relative viability: 0.479
EMC-BAC-2; first compound 0.2 µM
  relative viability: 0.82
EMC-BAC-2; first compound 0.6325 µM
  relative viability: 0.719
EMC-BAC-2; first compound 2 µM
  relative viability: 0.666
EMC-BAC-2; first compound 6.325 µM
  relative viability: 0.775
EMC-BAC-2; first compound 20 µM
  relative viability: 0.759
NCI-H23; first compound 0.2 µM
  relative viability: 0.793
NCI-H23; first compound 0.6325 µM
  relative viability: 0.583
NCI-H23; first compound 2 µM
  relative viability: 0.555
NCI-H23; first compound 6.325 µM
  relative viability: 0.669
NCI-H23; first compound 20 µM
  relative viability: 0.111
Calu-6; first compound 0.2 µM
  relative viability: 1.02
Calu-6; first compound 0.6325 µM
  relative viability: 0.941
Calu-6; first compound 2 µM
  relative viability: 0.859
Calu-6; first compound 6.325 µM
  relative viability: 1
Calu-6; first compound 20 µM
  relative viability: 0.856
NCI-H1299; first compound 0.2 µM
  relative viability: 1.07
NCI-H1299; first compound 0.6325 µM
  relative viability: 1.08
NCI-H1299; first compound 2 µM
  relative viability: 1.08
NCI-H1299; first compound 6.325 µM
  relative viability: 1.03
NCI-H1299; first compound 20 µM
  relative viability: 0.976
HCC-78; first compound 0.2 µM
  relative viability: 0.364
HCC-78; first compound 0.6325 µM
  relative viability: 0.26
HCC-78; first compound 6.325 µM
  relative viability: 0.335
HCC-78; first compound 20 µM
  relative viability: 0.0523
NCI-H1703; first compound 0.2 µM
  relative viability: 0.393
NCI-H1703; first compound 0.6325 µM
  relative viability: 0.37
NCI-H1703; first compound 2 µM
  relative viability: 0.318
NCI-H1703; first compound 6.325 µM
  relative viability: 0.436
NCI-H1703; first compound 20 µM
  relative viability: 0.0451
A549; first compound 0.2 µM
  relative viability: 0.728
A549; first compound 0.6325 µM
  relative viability: 0.803
A549; first compound 2 µM
  relative viability: 0.861
A549; first compound 6.325 µM
  relative viability: 0.881
A549; first compound 20 µM
  relative viability: 0.593
NCI-H1437; first compound 0.2 µM
  relative viability: 1
NCI-H1437; first compound 0.6325 µM
  relative viability: 0.972
NCI-H1437; first compound 2 µM
  relative viability: 1.01
NCI-H1437; first compound 6.325 µM
  relative viability: 1.12
NCI-H1437; first compound 20 µM
  relative viability: 0.926
NCI-H661; first compound 0.2 µM
  relative viability: 0.617
NCI-H661; first compound 0.6325 µM
  relative viability: 0.581
NCI-H661; first compound 6.325 µM
  relative viability: 0.602
NCI-H661; first compound 20 µM
  relative viability: 0.297
NCI-H1395; first compound 0.2 µM
  relative viability: 1.13
NCI-H1395; first compound 0.6325 µM
  relative viability: 0.737
NCI-H1395; first compound 2 µM
  relative viability: 0.977
NCI-H1395; first compound 6.325 µM
  relative viability: 0.993
NCI-H1395; first compound 20 µM
  relative viability: 0.635
EBC-1; first compound 0.2 µM
  relative viability: 0.87
EBC-1; first compound 0.6325 µM
  relative viability: 0.921
EBC-1; first compound 2 µM
  relative viability: 0.83
EBC-1; first compound 6.325 µM
  relative viability: 0.757
EBC-1; first compound 20 µM
  relative viability: 0.666
IA-LM; first compound 0.2 µM
  relative viability: 0.695
IA-LM; first compound 0.6325 µM
  relative viability: 0.863
IA-LM; first compound 2 µM
  relative viability: 0.726
IA-LM; first compound 6.325 µM
  relative viability: 1
IA-LM; first compound 20 µM
  relative viability: 0.813

## COCC1(CO)C(=O)C2CCN1CC2 (stereo unspecified) [PRIMA-1MET] + Nc1nc2[nH]cc(CCc3ccc(C(=O)N[C@@H](CCC(=O)O)C(=O)O)cc3)c2c(=O)[nH]1 [Pemetrexed] (partner 0.2 µM)
EMC-BAC-2; first compound 0.2 µM
  relative viability: 0.549
EMC-BAC-2; first compound 0.6325 µM
  relative viability: 0.44
EMC-BAC-2; first compound 2 µM
  relative viability: 0.422
EMC-BAC-2; first compound 6.325 µM
  relative viability: 0.459
EMC-BAC-2; first compound 20 µM
  relative viability: 0.473
NCI-H23; first compound 0.2 µM
  relative viability: 0.425
NCI-H23; first compound 0.6325 µM
  relative viability: 0.595
NCI-H23; first compound 2 µM
  relative viability: 0.443
NCI-H23; first compound 6.325 µM
  relative viability: 0.579
NCI-H23; first compound 20 µM
  relative viability: 0.175
HCC-78; first compound 0.2 µM
  relative viability: 0.916
HCC-78; first compound 0.6325 µM
  relative viability: 0.886
HCC-78; first compound 2 µM
  relative viability: 0.914
HCC-78; first compound 6.325 µM
  relative viability: 0.832
HCC-78; first compound 20 µM
  relative viability: 0.864
NCI-H1437; first compound 0.2 µM
  relative viability: 0.32
NCI-H1437; first compound 0.6325 µM
  relative viability: 0.284
NCI-H1437; first compound 2 µM
  relative viability: 0.308
NCI-H1437; first compound 6.325 µM
  relative viability: 0.298
NCI-H1437; first compound 20 µM
  relative viability: 0.283
NCI-H661; first compound 0.2 µM
  relative viability: 0.954
NCI-H661; first compound 0.6325 µM
  relative viability: 0.849
NCI-H661; first compound 2 µM
  relative viability: 0.952
NCI-H661; first compound 6.325 µM
  relative viability: 0.963
NCI-H661; first compound 20 µM
  relative viability: 0.928
NCI-H1395; first compound 0.2 µM
  relative viability: 0.842
NCI-H1395; first compound 2 µM
  relative viability: 0.771
NCI-H1395; first compound 6.325 µM
  relative viability: 0.881
NCI-H1395; first compound 20 µM
  relative viability: 0.154
NCI-H1648; first compound 0.2 µM
  relative viability: 0.72
NCI-H1648; first compound 2 µM
  relative viability: 0.776
NCI-H1648; first compound 20 µM
  relative viability: 0.637

Reference: the supplement of paper PMC10307832
